Earlier results as cited in PMC2228077, “The bioavailability of oral GI147211 (GG211), a new topoisomerase I inhibitor” (British Journal of Cancer, 1997).
Where “and” joins values, the source holds several entries; their conditions need not be identical. Equal values may be shown once.

Experiments:
[1] = human, in vivo, po; cited from earlier work
[2] = set-up: method as in Kuhn et al, 1995; Schellens et al, 1996; conditions: oral topotecan; ref Kuhn et al, 1995; Schellens et al, 1996; cited from earlier work
[3] = set-up: method as in Rowinsky et al, 1992; Verweij et al, 1993; conditions: ref Rowinsky et al, 1992; Verweij et al, 1993; cited from earlier work

Structure (SMILES) | patients who developed CTC grade >= II diarrhoea [1] | bioavailability (variable systemic exposure) [2] | dose-limiting toxicity [3]
CC[C@@]1(O)C(=O)OCc2c1cc1n(c2=O)Cc2cc3c([N+](=O)[O-])cccc3nc2-1 [9-nitro-camptothecin] | 33% | – | –
CC[C@@]1(O)C(=O)OCc2c1cc1n(c2=O)Cc2cc3c(CN(C)C)c(O)ccc3nc2-1 [topotecan] | – | 32% and 44% | cumulative myelosuppression
